Three compounds from US9475817B2 (BRISTOL-MYERS SQUIBB COMPANY, priority 2012, dated 2016) can be followed below.

For one test, the target named is CK1δ (Homo sapiens (Human), UniProt P48730). As to the kind of experiment: CK1δ kinase assay (Caliper LabChip, fluoresceinated peptide substrate). It counts as biochemical. Conditions: 200 pM CK1δ, 50 μM ATP, 1.5 μM peptide substrate, 22 hours room temperature. On the procedure: (§1) CK1ε and CK1δ Kinase Assays
(§2) The kinase assay was performed in V-bottom 384-well plates. […] The reaction was incubated at room temperature for 22 hours and terminated by adding 45 μl of 35 mM EDTA to each sample. […] Compounds were dissolved at 10 mM in dimethylsulfoxide (DMSO) and evaluated at eleven concentrations. IC50 values were derived by non-linear regression analysis.

The target of another test is CK1ε (Homo sapiens (Human), UniProt P49674). The test can be described thus: CK1ε kinase assay (Caliper LabChip, fluoresceinated peptide substrate). Conditions: 200 pM CK1ε, 50 μM ATP, 1.5 μM peptide substrate, 22 hours room temperature. The test is classed as biochemical. On the procedure: as §1, §2
Chain of CK1ε (P49674 whole entry): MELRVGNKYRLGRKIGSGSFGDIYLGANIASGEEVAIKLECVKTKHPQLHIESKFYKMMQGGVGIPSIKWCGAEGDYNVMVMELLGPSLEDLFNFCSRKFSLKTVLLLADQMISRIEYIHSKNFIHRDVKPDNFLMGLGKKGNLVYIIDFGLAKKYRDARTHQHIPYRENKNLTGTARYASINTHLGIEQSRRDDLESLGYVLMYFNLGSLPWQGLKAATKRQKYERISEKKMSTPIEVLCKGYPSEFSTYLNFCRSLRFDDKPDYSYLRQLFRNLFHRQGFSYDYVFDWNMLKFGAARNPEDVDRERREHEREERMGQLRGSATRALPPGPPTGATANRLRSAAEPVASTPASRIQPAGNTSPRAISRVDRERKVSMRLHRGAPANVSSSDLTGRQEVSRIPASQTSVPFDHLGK

Chain of CK1δ (P48730 whole entry): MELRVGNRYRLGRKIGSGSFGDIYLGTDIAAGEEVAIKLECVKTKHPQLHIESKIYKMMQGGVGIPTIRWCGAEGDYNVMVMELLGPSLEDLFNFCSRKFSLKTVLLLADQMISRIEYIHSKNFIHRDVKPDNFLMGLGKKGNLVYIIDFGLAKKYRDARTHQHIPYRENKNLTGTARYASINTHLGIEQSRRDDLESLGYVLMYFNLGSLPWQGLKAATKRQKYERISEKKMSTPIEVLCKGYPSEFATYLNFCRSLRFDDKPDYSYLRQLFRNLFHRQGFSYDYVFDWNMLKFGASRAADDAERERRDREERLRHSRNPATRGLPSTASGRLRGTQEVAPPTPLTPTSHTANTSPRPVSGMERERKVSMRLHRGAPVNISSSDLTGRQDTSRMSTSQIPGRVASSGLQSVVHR

As for `Cn1cc(-c2ccc3nc(Nc4ncccn4)cn3n2)c(-c2ccc(F)cc2)n1` [Compound 185, 6-(3-(4-Fluorophenyl)-1-methyl-1H-pyrazol-4-yl)-N-(pyrimidin-2-yl)imidazo[1,2-b]pyridazin-2-amine], the IC50 (commonly the concentration at which inhibition is half-maximal) against CK1δ is 0.016 µM; against CK1ε, 0.048 µM.
As for `Cn1cc(-c2ccc3nc(NC(=O)c4ccc(Cl)cc4F)cn3n2)c(-c2ccc(F)cc2)n1` [Compound 24, 4-chloro-2-fluoro-N-(6-(3-(4-fluorophenyl)-1-methyl-1H-pyrazol-4-yl)imidazo[1,2-b]pyridazin-2-yl)benzamide], the IC50 worked out at 0.0063 µM against CK1δ and 0.0162 µM against CK1ε.
On to `Cn1cc(-c2ccc3nc(NC(=O)c4ccno4)cn3n2)c(-c2ccc(F)cc2)n1` [Compound 22, N-(6-(3-(4-fluorophenyl)-1-methyl-1H-pyrazol-4-yl)imidazo[1,2-b]pyridazin-2-yl)isoxazole-5-carboxamide], for which the IC50 on CK1δ worked out at 0.0037 µM; at CK1ε, 0.0152 µM.
